According to patent US10428056B2, “Heterocyclic compound” (Takeda Pharmaceutical Company Limited, priority 2015, dated 2019):
Each block holds one compound with its values, some of them ahead of it.

Experiments:
[1] = target: T1, human M1 receptor (hCHRM1) (Homo sapiens, UniProt P11229); experiment: Measurement of M1 receptor positive allosteric modulator (M1PAM) activity, Ca fluorescence by FLIPRtetra (Experimental Example 1); type: cell-based; details: inflection point of concentration-dependent curve, CHO-K1 cells expressing hCHRM1, acetylcholine at EC20 (0.8-1.0 nM), read-out: IP value
T1 construct: expressed in transfected cells; host or cells: CHO-K1
T1 sequence (P11229 1-460): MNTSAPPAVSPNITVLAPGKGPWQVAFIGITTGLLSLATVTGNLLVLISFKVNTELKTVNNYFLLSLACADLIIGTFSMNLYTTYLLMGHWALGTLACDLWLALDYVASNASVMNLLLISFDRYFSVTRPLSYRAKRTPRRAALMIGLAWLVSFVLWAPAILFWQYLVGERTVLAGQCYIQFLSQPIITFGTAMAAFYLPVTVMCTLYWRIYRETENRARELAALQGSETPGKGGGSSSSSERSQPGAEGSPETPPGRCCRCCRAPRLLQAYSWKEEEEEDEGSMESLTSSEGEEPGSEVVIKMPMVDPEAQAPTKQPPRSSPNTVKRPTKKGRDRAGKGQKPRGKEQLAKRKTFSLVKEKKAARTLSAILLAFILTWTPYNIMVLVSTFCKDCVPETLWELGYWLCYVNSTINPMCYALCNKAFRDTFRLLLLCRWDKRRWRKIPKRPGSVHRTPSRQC
Procedure: (§1) Measurement of M1 Receptor Positive Allosteric Modulator (M1PAM) Activity
(§2) The activity of a test compound in the presence of acetylcholine at EC20 concentration (final concentration 0.8-1.0 nM), which affords an action corresponding to about 20% of the maximum activity, was measured as PAM activity. The method is as follows. CHO-K1 cells stably expressing a human M1 receptor (hCHRM1) were plated on a 384-well black clear bottom plate (BD Falcon) at 5,000 cells/well, and cultured in an incubator at 37° C., 5% CO2 for 1 day. […] A test compound prepared by diluting with assay buffer containing 3.2-4.0 nM acetylcholine was added at 10 μL/well, and the fluorescence was measured by FLIPRtetra (Molecular Devices) for 1 min every 1 second. With the definition that the amount of change in the fluorescence on addition of acetylcholine (final concentration 1 μM) is 100% and that on addition of DMSO instead of a test compound is 0%, the activity (%) of the test compound was calculated, and the inflection point in the concentration-dependent curve of the test compound was calculated as IP values.

[2] = tested on: Scopolamine-induced memory deficits models; experiment: Novel object recognition test (Experimental Example 4); type: in vivo, male Long-Evans rats; details: 10 mg/kg oral single dose, scopolamine 0.1 mg/kg s.c.; retention trial 4 hr after acquisition; mean±standard error
Procedure: Novel Object Recognition Test Novel object recognition test is comprised of two trials called the acquisition and the retention trials. Scopolamine-induced memory deficits models were used for the test, and animals used were male Long-Evans rats. On the day before the test, for acclimation, the rats were allowed to freely move about the test box (40×40×50 cm) for 10 minutes. On the test day, the rats were acclimated to the test room for about 1 hr prior to the test. The test compounds were orally administered to the rats in a single dose a given time before the acquisition trial. For induction of learning and memory deficits, scopolamine (0.1 mg/kg) was subcutaneously administered into the rats 30 min before the acquisition trial. For the acquisition trial, two identical objects (A1, A2) were placed in the test box. The rats were put in the test box for 3 min, and the duration exploring each object was measured. The retention trial was performed 4 hr after the acquisition trial. […] The duration for exploring each object in the acquisition trial and the retention trial was measured, and the exploration rate of novel object was calculated. The exploration rate of novel object was expressed as (the duration exploring the novel object)/[(the duration exploring the novel object)+(the duration exploring the familiar object)]×100(%) at mean±standard error.

[3] = target: T1, human M1 receptor (hCHRM1); experiment: Measurement of M1 receptor positive allosteric modulator (M1PAM) activity, Ca fluorescence by FDSS/μ cell (Experimental Example 2); type: cell-based; details: inflection point of concentration-dependent curve, CHO-K1 cells expressing hCHRM1, acetylcholine at EC20 (0.8-1.0 nM), read-out: IP value
Procedure: as §1
as §2, with “FDSS/μ cell (Hamamatsu Photonics K.K.)” for “FLIPRtetra (Molecular Devices)”

EC50 [1]: 27 nM
Compound: Cc1cc2c(cc1Cc1ccc(Cl)nc1)C(=O)N([C@H]1CCCC[C@@H]1O)CO2 (relative stereo) [Example 62, 6-((6-chloropyridin-3-yl)methyl)-3-(trans-2-hydroxycyclohexyl)-7-methyl-2,3-dihydro-4H-1,3-benzoxazin-4-one]

Compound: Cc1ccc(Cc2cc3c(cc2C)OCN([C@H]2CCCC[C@@H]2O)C3=O)cn1 (single isomer, unassigned) [Example 28, 3-(trans-2-hydroxycyclohexyl)-7-methyl-6-((6-methylpyridin-3-yl)methyl)-2,3-dihydro-4H-1,3-benzoxazin-4-one]
exploration rate of novel object (%) [2]: 56.0±2.2%

EC50 [3]: 6.8 nM
Compound: Cc1c(Cc2ccc(-n3cccn3)nc2)cc2c(c1Cl)OCN([C@H]1CCC[C@@H]1O)C2=O (single isomer, unassigned) [Example 97, 8-chloro-3-(trans-2-hydroxycyclopentyl)-7-methyl-6-((6-(1H-pyrazol-1-yl)pyridin-3-yl)methyl)-2,3-dihydro-4H-1,3-benzoxazin-4-one]
